# In ChEMBL document CHEMBL4613230, “Antifungal Sesquiterpenoids, Rhodocoranes, from Submerged Cultures of the Wrinkled Peach Mushroom, Rhodotus palmatus” (J Nat Prod, 2020):
# Activity calls are given as the source filed them. The rule behind the calls is not given here.
# Assays:
# Bacillus subtilis = experiment: Antimicrobial activity against Bacillus subtilis DSM 10 by serial dilution assay; type: functional
# Micrococcus luteus = experiment: Antimicrobial activity against Micrococcus luteus DSM 1790 by serial dilution assay; type: functional
# MCF7 = experiment: Cytotoxicity against human MCF7 cells by MTT assay; type: functional, cell-based
# KB 3-1 = experiment: Cytotoxicity against human KB3-1 cells by MTT assay; type: functional, cell-based
# L929 = experiment: Cytotoxicity against mouse L929 cells by MTT assay; type: cell-based
# A-431 = experiment: Cytotoxicity against human A431 cells by MTT assay; type: functional, cell-based
# Rhodotorula glutinis = experiment: Antimicrobial activity against Rhodotorula glutinis DSM 10134 by serial dilution assay; type: functional, organism-based
# Escherichia coli = experiment: Antimicrobial activity against Escherichia coli harboring TolC mutant by serial dilution assay; type: functional
# Staphylococcus aureus = experiment: Antimicrobial activity against Staphylococcus aureus DSM346 by serial dilution assay; type: functional
# Mucor plumbeus = experiment: Antimicrobial activity against Mucor plumbeus MUCL49355 by serial dilution assay; type: functional
compound,measurement,setting,value
Cc1cc(C2=C(C(C)C)CC[C@H]2C)oc(=O)c1O,MIC,Bacillus subtilis,33.3 to 66.7 µg/mL
same,MIC,Micrococcus luteus,33.3 to 66.7 µg/mL
same,IC50,MCF7,9.3 µM
same,IC50,KB 3-1,2.9 µM
same,IC50,L929,5.6 µM
same,IC50,A-431,12 µM
same,Activity,Rhodotorula glutinis,Active
same,MIC,Escherichia coli,33.3 to 66.7 µg/mL
same,MIC,Staphylococcus aureus,33.3 to 66.7 µg/mL
CC1=C(O)C(=O)[C@]23C(=O)[C@H]1[C@H](O)[C@@H](C)[C@H]2CC[C@H]3C,Activity,Rhodotorula glutinis,Active
CC1=C/C(=C2/[C@H](C)CC[C@@H]2[C@H](C)CO)OC1=O,MIC,Mucor plumbeus,8.3 µg/mL
same,Activity,Rhodotorula glutinis,Active
CC1=C/C(=C2/[C@H](C)CC[C@@H]2C(C)C)OC1=O,MIC,Mucor plumbeus,8.3 µg/mL
same,MIC,Bacillus subtilis,33.3 to 66.7 µg/mL
same,MIC,Micrococcus luteus,33.3 to 66.7 µg/mL
same,Activity,Rhodotorula glutinis,Active
same,MIC,Escherichia coli,33.3 to 66.7 µg/mL
same,MIC,Staphylococcus aureus,33.3 to 66.7 µg/mL
CC1=C/C(=C2\[C@H](C)CC[C@@H]2[C@H](C)CO)OC1=O,Activity,Rhodotorula glutinis,Active
CC1=CC(=O)[C@]2(C1=O)[C@H](C)CC[C@@H]2[C@H](C)CO,Activity,Rhodotorula glutinis,Active
Cc1cc([C@]23OC[C@@H](C)[C@H]2CC[C@H]3C)oc(=O)c1O,Activity,Rhodotorula glutinis,Active
